pKd: −log10 of the molar value. Non-standard residues stand in square brackets, D forms with d. Residues, ends and D or L forms follow the SMILES beside them. Cha = N[C@@H](CC1CCCCC1)C(=O)O; Nle = CCCC[C@H](N)C(=O)O; Dap = NC[C@H](N)C(=O)O; Aib = CC(C)(N)C(=O)O
Target: T1, PTH receptor present on SaOS-2 (human osteosarcoma cells) (Homo sapiens, UniProt Q03431)
T1 construct: host or cells: SaOS-2 human osteosarcoma cells (intact, confluent monolayers)
T1 sequence (Q03431 27-593): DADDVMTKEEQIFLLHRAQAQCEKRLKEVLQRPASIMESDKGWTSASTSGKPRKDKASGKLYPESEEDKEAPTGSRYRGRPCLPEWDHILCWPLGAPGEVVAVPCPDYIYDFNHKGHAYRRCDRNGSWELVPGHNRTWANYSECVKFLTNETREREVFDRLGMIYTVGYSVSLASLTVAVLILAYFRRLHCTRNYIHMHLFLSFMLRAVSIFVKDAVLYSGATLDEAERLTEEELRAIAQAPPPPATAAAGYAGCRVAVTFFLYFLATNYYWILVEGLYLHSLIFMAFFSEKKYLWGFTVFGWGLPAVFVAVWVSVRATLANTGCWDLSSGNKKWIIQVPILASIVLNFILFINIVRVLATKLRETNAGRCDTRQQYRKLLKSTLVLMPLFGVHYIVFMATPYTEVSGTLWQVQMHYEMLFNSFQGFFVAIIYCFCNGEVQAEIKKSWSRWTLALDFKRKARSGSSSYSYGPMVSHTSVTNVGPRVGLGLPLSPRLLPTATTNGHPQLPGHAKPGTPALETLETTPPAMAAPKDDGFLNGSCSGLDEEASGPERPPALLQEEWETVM
Assay: Binding to PTH receptor on SaOS-2 cells (competition with mono-125I-[Nle8,18,Tyr34(3-125I)]bPTH(1-34)NH2)
Details: Table I, 2 hrs at room temperature, read-out: Kd (half maximal inhibition of binding of mono-125I-[Nle8,18, Tyr34(3-125I)]bPTH(1-34)NH2)
Method in brief: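 Confluent SaOS-2 cells in 5% FBS RPMI were incubated 2 h at room temperature with 10×10^4 cpm mono-125I-[Nle8,18,Tyr34(3-125I)]bPTH(1-34)NH2 plus competing peptide at 10^−11 to 10^−4 M. After washing, cell-bound radioactivity was counted; Kd taken as half-maximal inhibition of tracer binding.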

| Structure (SMILES) | pKd |
| --- | --- |
| CC[C@H](C)[C@H](NC(=O)[C@H](CCC(=O)O)NC(=O)[C@H](CO)NC(=O)[C@@H](NC(=O)[C@@H](N)CO)C(C)C)C(=O)N[C@@H](CCC(N)=O)C(=O)N[C@@H](CC(C)C)C(=O)N[C@@H](CCSC)C(=O)N[C@@H](Cc1c[nH]cn1)C(=O)N[C@@H](CC(N)=O)C(=O)N[C@@H](CC(C)C)C(=O)NCC(=O)N[C@@H](CCCCN)C(=O)N[C@@H](Cc1c[nH]cn1)C(=O)N[C@@H](CC(C)C)C(=O)NC(C)(C)C(=O)N[C@@H](CO)C(=O)N[C@@H](CCSC)C(=O)NC(C)(C)C(=O)N[C@@H](CCCNC(=N)N)C(=O)N[C@H](C(=O)N[C@@H](CCC(=O)O)C(=O)N[C@@H](Cc1c[nH]c2ccccc12)C(=O)N[C@@H](CC(C)C)C(=O)N[C@@H](CCCNC(=N)N)C(=O)N[C@@H](CCCCN)C(=O)N[C@@H](CCCCN)C(=O)N[C@@H](CC(C)C)C(=O)N[C@@H](CCC(N)=O)C(=O)N[C@@H](CC(=O)O)C(=O)N[C@H](C(=O)N[C@@H](Cc1c[nH]cn1)C(=O)N[C@@H](CC(N)=O)C(=O)N[C@@H](Cc1ccccc1)C(N)=O)C(C)C)C(C)C [[Aib^16,19]hPTH(1-34)NH2] (H-SVSEIQLMHNLGKHL[Aib]SM[Aib]RVEWLRKKLQDVHNF-NH2) | 8.40 |
| CCCC[C@H](NC(=O)[C@H](CO)NC(=O)[C@H](CC(N)=O)NC(=O)[C@H](CC(C)C)NC(=O)[C@H](Cc1c[nH]cn1)NC(=O)[C@H](CCCCN)NC(=O)CNC(=O)[C@H](CC(C)C)NC(=O)[C@H](CC(N)=O)NC(=O)[C@H](Cc1c[nH]cn1)NC(=O)[C@H](CCCC)NC(=O)[C@H](CC(C)C)NC(=O)[C@H](CCC(N)=O)NC(=O)[C@@H](NC(=O)[C@H](CCC(=O)O)NC(=O)[C@H](CO)NC(=O)[C@@H](NC(=O)[C@@H](N)CN)C(C)C)[C@@H](C)CC)C(=O)N[C@@H](CCC(=O)O)C(=O)N[C@@H](CCCNC(=N)N)C(=O)N[C@H](C(=O)N[C@@H](CCC(=O)O)C(=O)N[C@@H](Cc1c[nH]c2ccccc12)C(=O)N[C@@H](CC(C)C)C(=O)N[C@@H](CCCNC(=N)N)C(=O)N[C@@H](CCCCN)C(=O)N[C@@H](CCCCN)C(=O)N[C@@H](CC(C)C)C(=O)N[C@@H](CCC(N)=O)C(=O)N[C@@H](CC(=O)O)C(=O)N[C@H](C(=O)N[C@@H](Cc1c[nH]cn1)C(=O)N[C@@H](CC(N)=O)C(=O)N[C@@H](Cc1ccc(O)cc1)C(N)=O)C(C)C)C(C)C [[Dap,Nle^8,18, Tyr^34]hPTH(1-34)NH2] (H-[Dap]VSEIQL[Nle]HNLGKHLNS[Nle]ERVEWLRKKLQDVHNY-NH2) | 6.82 |
| CC[C@H](C)[C@H](NC(=O)[C@H](CCC(=O)O)NC(=O)[C@H](CO)NC(=O)[C@@H](NC(=O)[C@@H](N)CO)C(C)C)C(=O)N[C@@H](CCC(N)=O)C(=O)N[C@@H](CC(C)C)C(=O)N[C@@H](CCSC)C(=O)N[C@@H](Cc1c[nH]cn1)C(=O)N[C@@H](CC(N)=O)C(=O)N[C@@H](CC(C)C)C(=O)NC(C)(C)C(=O)N[C@@H](CCCCN)C(=O)N[C@@H](Cc1c[nH]cn1)C(=O)N[C@@H](CC(C)C)C(=O)N[C@@H](CC(N)=O)C(=O)N[C@@H](CO)C(=O)N[C@@H](CCSC)C(=O)N[C@@H](CCC(=O)O)C(=O)N[C@@H](CCCNC(=N)N)C(=O)N[C@H](C(=O)N[C@@H](CCC(=O)O)C(=O)N[C@@H](Cc1c[nH]c2ccccc12)C(=O)N[C@@H](CC(C)C)C(=O)N[C@@H](CCCNC(=N)N)C(=O)N[C@@H](CCCCN)C(=O)N[C@@H](CCCCN)C(=O)N[C@@H](CC(C)C)C(=O)N[C@@H](CCC(N)=O)C(=O)N[C@@H](CC(=O)O)C(=O)N[C@H](C(=O)N[C@@H](Cc1c[nH]cn1)C(=O)N[C@@H](CC(N)=O)C(=O)N[C@@H](Cc1ccccc1)C(N)=O)C(C)C)C(C)C [[Aib^12]hPTH(1-34)NH2] (H-SVSEIQLMHNL[Aib]KHLNSMERVEWLRKKLQDVHNF-NH2) | 8.30 |
| CCCC[C@H](NC(=O)[C@H](CC(=O)O)NC(=O)[C@H](CCC(N)=O)NC(=O)[C@H](CC(C)C)NC(=O)[C@H](CCCCN)NC(=O)[C@H](CCCCN)NC(=O)[C@H](CCCNC(=N)N)NC(=O)[C@H](CC(C)C)NC(=O)[C@H](Cc1c[nH]c2ccccc12)NC(=O)[C@H](CCC(=O)O)NC(=O)[C@@H](NC(=O)[C@H](CCCNC(=N)N)NC(=O)[C@H](CCC(=O)O)NC(=O)[C@H](CCSC)NC(=O)[C@H](CO)NC(=O)[C@H](CC(N)=O)NC(=O)[C@H](CC(C)C)NC(=O)[C@H](Cc1c[nH]cn1)NC(=O)[C@H](CCCCN)NC(=O)CNC(=O)[C@H](CC(C)C)NC(=O)[C@H](CC(N)=O)NC(=O)[C@H](Cc1c[nH]cn1)NC(=O)[C@H](CCSC)NC(=O)[C@H](CC(C)C)NC(=O)[C@H](CCC(N)=O)NC(=O)[C@@H](NC(=O)[C@H](CCC(=O)O)NC(=O)[C@H](CO)NC(=O)[C@@H](NC(=O)[C@@H](N)CO)C(C)C)[C@@H](C)CC)C(C)C)C(=O)N[C@@H](Cc1c[nH]cn1)C(=O)N[C@@H](CC(N)=O)C(=O)N[C@@H](Cc1ccccc1)C(N)=O [[Nle^31]hPTH(1-34)NH2] (H-SVSEIQLMHNLGKHLNSMERVEWLRKKLQD[Nle]HNF-NH2) | 8.40 |
| CC[C@H](C)[C@H](NC(=O)[C@H](CCC(=O)O)NC(=O)[C@H](CO)NC(=O)[C@@H](NC(=O)[C@@H](N)CO)C(C)C)C(=O)N[C@@H](CCC(N)=O)C(=O)N[C@@H](CC(C)C)C(=O)N[C@@H](CCSC)C(=O)N[C@@H](Cc1c[nH]cn1)C(=O)N[C@@H](CC(N)=O)C(=O)N[C@@H](CC(C)C)C(=O)NCC(=O)N[C@@H](CCCCN)C(=O)N[C@@H](Cc1c[nH]cn1)C(=O)N[C@@H](CC(C)C)C(=O)N[C@@H](CC(N)=O)C(=O)N[C@@H](CO)C(=O)N[C@@H](CCSC)C(=O)NC(C)(C)C(=O)N[C@@H](CCCNC(=N)N)C(=O)N[C@H](C(=O)N[C@@H](CCC(=O)O)C(=O)N[C@@H](Cc1c[nH]c2ccccc12)C(=O)N[C@@H](CC(C)C)C(=O)N[C@@H](CCCNC(=N)N)C(=O)N[C@@H](CCCCN)C(=O)N[C@@H](CCCCN)C(=O)N[C@@H](CC(C)C)C(=O)N[C@@H](CCC(N)=O)C(=O)N[C@@H](CC(=O)O)C(=O)N[C@H](C(=O)N[C@@H](Cc1c[nH]cn1)C(=O)N[C@@H](CC(N)=O)C(=O)N[C@@H](Cc1ccccc1)C(N)=O)C(C)C)C(C)C [[Aib^19]hPTH(1-34)NH2] (H-SVSEIQLMHNLGKHLNSM[Aib]RVEWLRKKLQDVHNF-NH2) | 8.30 |
| CC[C@H](C)[C@H](NC(=O)[C@H](CCC(=O)O)NC(=O)[C@H](CO)NC(=O)[C@@H](NC(=O)[C@@H](N)CO)C(C)C)C(=O)N[C@@H](CCC(N)=O)C(=O)N[C@@H](CC(C)C)C(=O)N[C@@H](CCSC)C(=O)N[C@@H](Cc1c[nH]cn1)C(=O)N[C@@H](CC(N)=O)C(=O)N[C@@H](CC(C)C)C(=O)NCC(=O)N[C@@H](CCCCN)C(=O)N[C@@H](Cc1c[nH]cn1)C(=O)N[C@@H](CC(C)C)C(=O)N[C@@H](CC(N)=O)C(=O)N[C@@H](CO)C(=O)N[C@@H](CCSC)C(=O)N[C@@H](CCC(=O)O)C(=O)N[C@@H](CCCNC(=N)N)C(=O)N[C@H](C(=O)N[C@@H](CCC(=O)O)C(=O)N[C@@H](Cc1c[nH]c2ccccc12)C(=O)N[C@@H](CC(C)C)C(=O)N[C@@H](CCCNC(=N)N)C(=O)N[C@@H](CCCCN)C(=O)N[C@@H](CCCCN)C(=O)N[C@@H](CC(C)C)C(=O)N[C@@H](CCC(N)=O)C(=O)N[C@@H](CC(=O)O)C(=O)N[C@@H](CC1CCCCC1)C(=O)N[C@@H](Cc1c[nH]cn1)C(=O)N[C@@H](CC(N)=O)C(=O)N[C@@H](Cc1ccccc1)C(N)=O)C(C)C [[Cha^31]hPTH(1-34)NH2] (H-SVSEIQLMHNLGKHLNSMERVEWLRKKLQD[Cha]HNF-NH2) | 7.52 |
